Experimental data taken from the supplement of paper PMC10307832.

How the values were obtained:
Experiment in all cases: relative viability (nuclei count vs DMSO), 5 days (fraction); higher = more cells survive
[1] = compound: CC1=CC(=CC=C1)NC2=NC(=CS2)C3=CC=NC=C3 + Nc1nc2[nH]cc(CCc3ccc(C(=O)N[C@@H](CCC(=O)O)C(=O)O)cc3)c2c(=O)[nH]1 [Pemetrexed] (partner 0.2 µM)
How it was run: (§1)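 A single step with final 0.05% Triton X-100, 1% formaldehyde and 1 ug/ml Hoechst fixed the cells and stained nuclei 5 days after treatment. Lung cancer cell lines in 1536-well plates had been treated by pin tool the day after seeding with one drug alone or a fixed anchor-drug dose plus five library-drug doses (not always all listed) in √10 steps, and nuclei were counted on 4× images. Relative viability is the ratio of nuclei in treated wells to nuclei in vehicle wells, taken as the median of duplicate plates.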

Masitinib + Foretinib = compound: Cc1ccc(NC(=O)c2ccc(CN3CCN(C)CC3)cc2)cc1Nc1nc(-c2cccnc2)cs1 [Masitinib] + COc1cc2c(Oc3ccc(NC(=O)C4(C(=O)Nc5ccc(F)cc5)CC4)cc3F)ccnc2cc1OCCCN1CCOCC1 [Foretinib] (partner 0.25 µM)
How it was run: as §1

Masitinib + Pemetrexed = compound: Cc1ccc(NC(=O)c2ccc(CN3CCN(C)CC3)cc2)cc1Nc1nc(-c2cccnc2)cs1 [Masitinib] + Nc1nc2[nH]cc(CCc3ccc(C(=O)N[C@@H](CCC(=O)O)C(=O)O)cc3)c2c(=O)[nH]1 [Pemetrexed] (partner 0.2 µM)
How it was run: as §1

Masitinib + Trametinib = compound: Cc1ccc(NC(=O)c2ccc(CN3CCN(C)CC3)cc2)cc1Nc1nc(-c2cccnc2)cs1 [Masitinib] + CC(=O)Nc1cccc(-n2c(=O)n(C3CC3)c(=O)c3c(Nc4ccc(I)cc4F)n(C)c(=O)c(C)c32)c1 [Trametinib] (partner 0.02 µM)
How it was run: as §1

| Cell Line | relative viability ([1]; first compound 0.08 µM) | relative viability ([1]; first compound 0.253 µM) | relative viability ([1]; first compound 0.8 µM) | relative viability ([1]; first compound 2.53 µM) | relative viability ([1]; first compound 8 µM) | relative viability (Masitinib + Foretinib; first compound 0.01 µM) | relative viability (Masitinib + Foretinib; first compound 0.03162 µM) | relative viability (Masitinib + Foretinib; first compound 0.1 µM) | relative viability (Masitinib + Foretinib; first compound 0.3162 µM) | relative viability (Masitinib + Foretinib; first compound 1 µM) | relative viability (Masitinib + Pemetrexed; first compound 0.01 µM) | relative viability (Masitinib + Pemetrexed; first compound 0.03162 µM) | relative viability (Masitinib + Pemetrexed; first compound 0.1 µM) | relative viability (Masitinib + Pemetrexed; first compound 0.3162 µM) | relative viability (Masitinib + Pemetrexed; first compound 1 µM) | relative viability (Masitinib + Trametinib; first compound 0.01 µM) | relative viability (Masitinib + Trametinib; first compound 0.03162 µM) | relative viability (Masitinib + Trametinib; first compound 0.1 µM) | relative viability (Masitinib + Trametinib; first compound 0.3162 µM) | relative viability (Masitinib + Trametinib; first compound 1 µM) |
| --- | --- | --- | --- | --- | --- | --- | --- | --- | --- | --- | --- | --- | --- | --- | --- | --- | --- | --- | --- | --- |
| NCI-H2347 | 0.431 | 0.42 | 0.41 | 0.404 | 0.385 | 1.02 | 0.847 | 1.09 | 0.787 | 1.15 | 0.425 | 0.406 | 0.385 | 0.446 | 0.417 | 0.26 | 0.262 | 0.291 | 0.293 | 0.288 |
| NCI-H2170 | 0.229 | 0.286 | 0.27 | 0.26 | 0.264 | 1.05 | 1.04 | 1.16 | 1.02 | 0.994 | 0.238 | 0.264 | 0.263 | 0.284 | 0.263 | 1.08 | 0.76 | 1.01 | 0.984 | 0.98 |
| NCI-H1944 | 0.543 | 0.6 | 0.636 | 0.654 | 0.476 | – | 0.832 | – | 0.793 | 0.85 | – | 0.618 | – | 0.572 | 0.566 | – | 0.457 | – | 0.349 | 0.368 |
| NCI-H596 | 0.494 | 0.472 | 0.446 | 0.454 | 0.463 | 0.859 | 0.9 | 0.947 | 0.869 | 0.891 | 0.553 | 0.536 | 0.501 | 0.463 | 0.472 | 0.723 | 0.691 | 0.789 | 0.678 | 0.732 |
| NCI-H520 | 0.706 | 0.678 | 0.677 | 0.865 | 0.644 | 0.899 | 0.937 | 0.987 | 0.695 | 0.762 | 0.652 | 0.851 | 0.731 | 0.77 | 0.857 | 0.752 | 0.634 | 0.873 | 0.76 | 0.598 |
| EKVX | 0.361 | 0.333 | – | 0.32 | 0.328 | – | 0.663 | 0.53 | 0.458 | 0.68 | 0.375 | 0.511 | 0.466 | – | 0.35 | 0.38 | 0.27 | 0.353 | – | 0.249 |
| SK-MES-1 | 0.757 | 0.762 | 0.787 | 0.822 | 0.862 | 1 | 0.861 | 1.1 | 0.572 | 0.841 | 0.844 | 0.924 | 0.873 | 0.877 | 0.967 | 0.519 | 0.528 | 0.561 | 0.485 | 0.514 |
| EPLC-272H | 0.404 | 0.375 | 0.264 | 0.31 | 0.332 | 0.63 | 0.64 | 0.669 | 0.875 | 0.645 | 0.32 | – | 0.348 | 0.399 | 0.249 | 0.28 | 0.35 | 0.376 | 0.268 | 0.237 |
| NCI-H1650 | 0.341 | 0.358 | 0.399 | 0.346 | 0.323 | 0.984 | 0.914 | 1.09 | 0.902 | 1.17 | 0.389 | 0.49 | 0.395 | 0.365 | 0.374 | 0.48 | 0.54 | 0.479 | 0.493 | 0.527 |
| NCI-H1395 | 0.757 | – | 0.921 | 0.596 | 0.728 | 0.969 | 1 | 1.06 | 0.754 | 0.915 | 1.02 | 0.872 | 1.02 | 0.965 | 0.717 | 1.01 | 1.03 | 1.04 | 1.11 | 0.973 |
| NCI-H2228 | 0.38 | 0.346 | 0.323 | 0.343 | 0.208 | 0.672 | 0.763 | 0.838 | 0.861 | 0.777 | 0.342 | 0.372 | 0.347 | 0.347 | 0.363 | 0.385 | 0.381 | 0.405 | 0.482 | 0.529 |
| NCI-H2023 | 0.211 | 0.18 | 0.274 | 0.195 | 0.187 | 0.786 | 0.721 | 0.745 | 0.836 | 0.73 | 0.228 | 0.201 | 0.207 | 0.244 | 0.215 | 0.509 | 0.448 | 0.531 | 0.518 | 0.549 |
| SW 900 | 0.507 | 0.4 | 0.473 | 0.42 | 0.366 | 0.757 | 0.846 | 1.04 | 0.798 | 1.03 | 0.462 | 0.47 | 0.451 | 0.478 | 0.452 | 0.719 | 0.736 | 0.787 | 0.821 | 0.843 |
| NCI-H3122 | 0.202 | 0.202 | 0.191 | 0.226 | 0.19 | 0.89 | 1 | 1.05 | 1.01 | 0.887 | 0.175 | 0.196 | 0.193 | 0.201 | 0.191 | 0.26 | 0.243 | 0.24 | 0.267 | 0.168 |
| HCC-78 | 0.907 | 0.963 | 0.827 | 0.917 | 0.9 | 0.554 | 0.551 | 0.548 | 0.521 | 0.451 | 0.933 | 0.877 | 0.887 | 0.987 | 0.893 | 0.509 | 0.787 | 0.746 | 0.745 | 0.65 |
| LOU-NH91 | 0.38 | 0.391 | 0.348 | 0.366 | 0.366 | 0.886 | 0.908 | 0.958 | 0.858 | 0.897 | 0.363 | 0.312 | 0.402 | 0.365 | 0.376 | 0.756 | 0.765 | 0.792 | 0.732 | 0.772 |
| NCI-H322M | 0.564 | 0.576 | 0.608 | 0.615 | 0.624 | 0.973 | 0.896 | 1.02 | 0.935 | 0.948 | 0.606 | 0.594 | 0.625 | 0.615 | 0.582 | 0.576 | 0.465 | 0.519 | 0.637 | 0.566 |
